Tests used:
Leishmania donovani [1] = assay: Antileishmanial activity against intracellular amastigote stage of Leishmania donovani MHOM/IN/00/DEVI infected in human THP1 cells assessed as decrease infected macrophages after 120 hrs by microscopy; format: functional, organism-based; conditions: THP-1, 120 h
[2] = (§1) Cytotoxicity against human HepG2 cells after 72 hrs by MTT assay; format: cell-based; conditions: HepG2 cells
Leishmania donovani [3] = assay: Antileishmanial activity against promastigote stage of Leishmania donovani MHOM/IN/00/DEVI assessed as inhibition of metabolic activity after 72 hrs by MTT assay; format: functional, organism-based
[4] = Selectivity index, CC50 for human HepG2 cells to IC50 for promastigote stage of Leishmania donovani MHOM/IN/00/DEVI; format: functional
HepG2 = assay: as §1; format: cell-based; conditions: hepg2, 72 h
[5] = Cytotoxicity against mouse J774A.1 cells after 72 hrs by MTT assay; format: cell-based; conditions: J774.1, 72 h
Leishmania infantum = assay: Antileishmanial activity against intracellular amastigote stage of Leishmania infantum MHOM/MA/67/ITMAP-263 expressing luciferase infected in mouse J774A1 cells assessed as inhibition of metabolic activity after 120 hrs by luminescence assay; format: functional, organism-based; conditions: MHOM/MA/67/ITMAP-263, J774.A1, 120 h
THP-1 = assay: Cytotoxicity against human THP1 cells after 72 hrs by MTT assay; format: cell-based; conditions: THP-1, 72 h
[6] = Leishmania donovani, MHOM/IN/00/DEVI, 72 h, read-out: IC50

Row | Structure (SMILES) | CC50 at 72 h [2] [µM] | IC50 (Leishmania donovani [3]; [6]) [µM] | Ratio CC50/IC50 [4] | further results
1 | O=C(c1cccc([N+](=O)[O-])c1)c1ccc2ccc(/C=C/c3ccc(O)c(O)c3)nc2c1O | – | – | – | IC50 (Leishmania donovani [1]): 1.22 µM
2 | O=[N+]([O-])c1c(CS(=O)(=O)c2ccccc2)nc2c(Br)cc(Br)cn12 | – | – | – | IC50 (Leishmania donovani [1]): 5.5 µM
3 | Cc1nc2c(Cl)cccc2c(O)c1CN1CCCCC1C (stereo not given) | – | – | – | IC50 (Leishmania donovani [1]): 0.06 µM
4 | Nc1cccc2ccc(=O)[nH]c12 | > 100 | > 50 | – | –
5 | O=[N+]([O-])c1cccc2c(Br)cc(Br)nc12 | > 100 | > 50 | – | –
6 | O=c1cc(Br)c2cccc([N+](=O)[O-])c2[nH]1 | 27.1 | 9.6 | – | –
7 | O=c1cc(C#Cc2ccccc2)c2cccc([N+](=O)[O-])c2[nH]1 | 11.6 | 2.7 | 4.4 | –
8 | O=c1cc(C#Cc2ccc(Cl)cc2)c2cccc([N+](=O)[O-])c2[nH]1 | – | – | – | CC50 (HepG2): ND(Insoluble); IC50 (Leishmania donovani [3]): ND(Insoluble)
9 | COc1cccc(C#Cc2cc(=O)[nH]c3c([N+](=O)[O-])cccc23)c1 | > 10 | > 10 | – | –
10 | O=c1cc(C#CCOc2ccccc2)c2cccc([N+](=O)[O-])c2[nH]1 | 1.8 | 1.4 | 1.3 | –
11 | O=c1cc(C#CCO)c2cccc([N+](=O)[O-])c2[nH]1 | 2.1 | 2.4 | 0.9 | –
12 | O=c1cc(C#CCCO)c2cccc([N+](=O)[O-])c2[nH]1 | 15.9 | 21.8 | 0.7 | –
13 | CCC(O)CC#Cc1cc(=O)[nH]c2c([N+](=O)[O-])cccc12 (stereo not given) | 3.8 | 16.7 | 0.2 | –
14 | O=c1cc(-c2ccccc2)c2cccc([N+](=O)[O-])c2[nH]1 | 31.9 | 14.7 | 2.2 | –
15 | O=c1cc(-c2ccco2)c2cccc([N+](=O)[O-])c2[nH]1 | > 31.3 | > 5 | – | –
16 | Cc1ccc(-c2cc(=O)[nH]c3c([N+](=O)[O-])cccc23)s1 | > 15.6 | > 5 | – | –
17 | O=c1cc(-c2cccnc2)c2cccc([N+](=O)[O-])c2[nH]1 | 10.1 | > 50 | <1 | –

Row | Structure (SMILES) | CC50 at 72 h [2] [µM] | IC50 (Leishmania donovani [3]; [6]) [µM] | Ratio CC50/IC50 [4] | further results
18 | O=c1cc(-c2ccncc2)c2cccc([N+](=O)[O-])c2[nH]1 | 15.7 | 77.2 | 0.2 | –
19 | O=c1cc(-c2ccc(C(F)(F)F)cc2)c2cccc([N+](=O)[O-])c2[nH]1 | 42.7 | 6.1 | 7 | IC50 (Leishmania donovani [1]): > 20 µM; IC50 [5]: 33.4 µM; IC50 (Leishmania infantum): 11.8 µM; IC50 (THP-1): > 31.3 µM
20 | O=c1cc(-c2ccc(Cl)cc2)c2cccc([N+](=O)[O-])c2[nH]1 | 16.1 | 4.2 | 3.8 | –
21 | O=c1cc(-c2ccc(Br)cc2)c2cccc([N+](=O)[O-])c2[nH]1 | > 31.3 | 3.3 | >9.5 | IC50 (Leishmania donovani [1]): > 15.6 µM; IC50 [5]: 9 µM; IC50 (Leishmania infantum): > 20 µM; IC50 (THP-1): > 31.3 µM
22 | O=c1cc(-c2ccc(F)cc2)c2cccc([N+](=O)[O-])c2[nH]1 | 36.1 | 28 | 1.3 | –
23 | Cc1ccc(-c2cc(=O)[nH]c3c([N+](=O)[O-])cccc23)cc1 | 31 | 9.1 | 3.4 | –
24 | COc1ccc(-c2cc(=O)[nH]c3c([N+](=O)[O-])cccc23)cc1 | 37.1 | 28 | 1.3 | –
25 | O=c1cc(-c2cccc(C(F)(F)F)c2)c2cccc([N+](=O)[O-])c2[nH]1 | 14.7 | > 5 | <2.9 | –
26 | CC(C)(C)OCc1cc(=O)[nH]c2c([N+](=O)[O-])cccc12 | 5.3 | > 50 | <0.1 | –
27 | CCCCCCCCCCCCc1cc(=O)[nH]c2c([N+](=O)[O-])cccc12 | – | – | – | CC50 (HepG2): ND(Insoluble); IC50 (Leishmania donovani [3]): ND(Insoluble)
28 | C[C@@H]1[C@H](O)[C@@H](C)/C=C/C=C/C=C/C=C/C=C/C=C/C=C/[C@H](O[C@@H]2O[C@H](C)[C@@H](O)[C@H](N)[C@@H]2O)C[C@@H]2O[C@](O)(C[C@@H](O)C[C@@H](O)[C@H](O)CC[C@@H](O)C[C@@H](O)CC(=O)O[C@H]1C)C[C@H](O)[C@H]2C(=O)O [AMPHOTERICIN B] | – | – | – | IC50 (Leishmania donovani [1]): 0.16 µM; IC50 [5]: 2.5 µM; IC50 (Leishmania infantum): 0.06 µM; IC50 (THP-1): 8.4 µM
29 | COc1cccc2c1C(=O)c1c(O)c3c(c(O)c1C2=O)C[C@@](O)(C(=O)CO)C[C@@H]3O[C@H]1C[C@H](N)[C@H](O)[C@H](C)O1 [DOXORUBICIN] | – | – | – | IC50 [5]: 0.06 µM
30 | CSc1ccc(OCc2ncc([N+](=O)[O-])n2C)cc1 [FEXINIDAZOLE] | – | – | – | EC50 (Leishmania donovani [1]): 2.8 µM
31 | CCCCCCCCCCCCCCCCOP(=O)([O-])OCC[N+](C)(C)C [MILTEFOSINE] | – | – | – | IC50 (Leishmania donovani [1]): 6.8 µM; IC50 [5]: 90.4 µM; IC50 (Leishmania infantum): 4.2 µM; IC50 (THP-1): 40.5 µM
32 | N=C(N)c1ccc(OCCCCCOc2ccc(C(=N)N)cc2)cc1 [PENTAMIDINE] | – | – | 0.4 | IC50 (Leishmania donovani [1]): > 20 µM; IC50 [5]: 1 µM; IC50 (Leishmania infantum): > 20 µM
33 | CCN(CC)CCCCCCNc1cc(OC)cc2c(C)ccnc12 [SITAMAQUINE] | – | – | – | IC50 (Leishmania donovani [1]): 1 µM

From ChEMBL document CHEMBL3400040, “Antileishmanial pharmacomodulation in 8-nitroquinolin-2(1H)-one series” (Bioorg Med Chem, 2015)
